Measurements: ChEMBL document CHEMBL4765314, “Rational design and biological evaluation of gemfibrozil modified Xenopus GLP-1 derivatives as long-acting hypoglycemic agents” (Eur J Med Chem, 2020)
Calls of active or inactive are those of the source. No cut-off for these calls is given here. Starred links: 1 amine or outer side, 2 acyl side, 3 side chain; linkers in the order of their positions; H or OH if unused. Residues, ends and D or L forms follow the SMILES beside them. Groups on a side chain read outwards from the residue. *: point of attachment. X5 = CC(=O)[C@H](CCCCNC(=O)CC[C@H](NC(=O)CCCCCCCCCCNC(=O)COC(=O)C(C)(C)CCCOc1cc(C)ccc1C)C(=O)O)N*; X4 = CC(=O)[C@H](CCCCNC(=O)CC[C@H](NC(=O)COC(=O)C(C)(C)CCCOc1cc(C)ccc1C)C(=O)O)N*; Glycoloyl(O-gemfibrozoyl) = Cc1ccc(C)c(OCCCC(C)(C)C(=O)OCC(=O)*)c1; γGlu = O=C(O)[C@H](CCC(=O)[*:2])N[*:1]; Aun = NCCCCCCCCCCC(=O)O; Ahx = NCCCCCC(=O)O

Key:
[1] = target: Glucagon-like peptide 1 receptor (Homo sapiens, UniProt P43220); assay: Agonist activity at human GLP-1R expressed in HEK293 cells assessed as stimulation of cAMP accumulation incubated for 60 mins by HTRF assay; assay type: functional, cell-based
Glucagon-like peptide 1 receptor, sequence (P43220 whole entry): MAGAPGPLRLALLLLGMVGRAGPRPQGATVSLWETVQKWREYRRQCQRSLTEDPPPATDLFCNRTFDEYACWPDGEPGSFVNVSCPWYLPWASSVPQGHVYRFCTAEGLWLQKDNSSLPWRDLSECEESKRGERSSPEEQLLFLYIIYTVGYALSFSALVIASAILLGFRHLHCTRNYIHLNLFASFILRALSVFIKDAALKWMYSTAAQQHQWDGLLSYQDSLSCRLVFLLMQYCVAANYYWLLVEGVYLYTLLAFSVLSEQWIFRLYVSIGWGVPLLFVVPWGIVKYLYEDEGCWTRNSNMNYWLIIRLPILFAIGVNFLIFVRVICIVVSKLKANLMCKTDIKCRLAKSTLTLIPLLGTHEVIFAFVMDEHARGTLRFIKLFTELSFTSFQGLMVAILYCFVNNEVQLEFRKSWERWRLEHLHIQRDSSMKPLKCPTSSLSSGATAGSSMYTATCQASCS

Mus musculus = assay: Hypoglycemic activity in 12 hrs fasted ICR mouse assessed as reduction in blood glucose level at 25 nmol/kg, ip dosed 30 mins before glucose challenge measured up to 120 mins by OGTT method; assay type: functional, organism-based; conditions: time 150.0 min
[2] = Stability in Sprague-Dawley rat plasma at 1000 ng/ml measured up to 48 hrs under shaking condition by LC-MS/MS analysis; assay type: ADME, cell-free
[3] = Stability in Sprague-Dawley rat plasma assessed as half life at 1000 ng/ml measured up to 48 hrs under shaking condition by LC-MS/MS analysis; assay type: ADME, cell-free

Structure (SMILES) | EC50 [1] [nM] | Stabilty [2] | half-life at 1000 ng/ml [3] [h] | Activity (Mus musculus)
CC[C@H](C)[C@H](NC(=O)[C@H](CC(C)C)NC(=O)[C@H](Cc1c[nH]c2ccccc12)NC(=O)[C@H](CCC(=O)O)NC(=O)[C@@H](NC(=O)[C@H](Cc1ccccc1)NC(=O)[C@H](CCC(=O)O)NC(=O)[C@H](CCCCNC(=O)CC[C@H](NC(=O)CCCCCCCCCCNC(=O)COC(=O)C(C)(C)CCCOc1cc(C)ccc1C)C(=O)O)NC(=O)[C@H](C)NC(=O)[C@H](C)NC(=O)[C@H](CCC(=O)O)NC(=O)[C@H](CCC(=O)O)NC(=O)[C@H](CCC(=O)O)NC(=O)[C@H](CC(C)C)NC(=O)[C@H](Cc1ccc(O)cc1)NC(=O)[C@H](CCC(=O)O)NC(=O)[C@@H](NC(=O)[C@@H](NC(=O)[C@H](CC(=O)O)NC(=O)[C@H](CC(N)=O)NC(=O)[C@@H](NC(=O)[C@H](Cc1ccc(O)cc1)NC(=O)[C@@H](NC(=O)CNC(=O)[C@H](CCC(=O)O)NC(=O)CNC(=O)[C@@H](N)Cc1cnc[nH]1)[C@@H](C)O)[C@@H](C)O)C(C)C)[C@@H](C)O)[C@@H](C)CC)C(=O)N[C@@H](CCCCN)C(=O)NCC(=O)N[C@@H](CCCCN)C(=O)O (H-HGEGTYTNDVTEYLEEEAAK([γGlu-Aun-Glycoloyl(O-gemfibrozoyl)])EFIEWLIKGK-OH) | 0.093 | Stable | 18.1 | Active
CC[C@H](C)[C@H](NC(=O)[C@H](CC(C)C)NC(=O)[C@H](Cc1c[nH]c2ccccc12)NC(=O)[C@H](CCC(=O)O)NC(=O)[C@@H](NC(=O)[C@H](Cc1ccccc1)NC(=O)[C@H](CCC(=O)O)NC(=O)[C@H](CCCCN)NC(=O)[C@H](C)NC(=O)[C@H](C)NC(=O)[C@H](CCC(=O)O)NC(=O)[C@H](CCC(=O)O)NC(=O)[C@H](CCC(=O)O)NC(=O)[C@H](CC(C)C)NC(=O)[C@H](Cc1ccc(O)cc1)NC(=O)[C@H](CCC(=O)O)NC(=O)[C@@H](NC(=O)[C@@H](NC(=O)[C@H](CC(=O)O)NC(=O)[C@H](CC(N)=O)NC(=O)[C@@H](NC(=O)[C@H](Cc1ccc(O)cc1)NC(=O)[C@@H](NC(=O)CNC(=O)[C@H](CCC(=O)O)NC(=O)CNC(=O)[C@@H](N)Cc1cnc[nH]1)[C@@H](C)O)[C@@H](C)O)C(C)C)[C@@H](C)O)[C@@H](C)CC)C(=O)N[C@@H](CCCCNC(=O)CC[C@H](NC(=O)COC(=O)C(C)(C)CCCOc1cc(C)ccc1C)C(=O)O)C(=O)NCC(=O)N[C@@H](CCCCN)C(=O)O (H-HGEGTYTNDVTEYLEEEAAKEFIEWLIK([γGlu-Glycoloyl(O-gemfibrozoyl)])GK-OH) | 0.21 | Stable | – | Active
CC[C@H](C)[C@H](NC(=O)[C@H](CC(C)C)NC(=O)[C@H](Cc1c[nH]c2ccccc12)NC(=O)[C@H](CCC(=O)O)NC(=O)[C@@H](NC(=O)[C@H](Cc1ccccc1)NC(=O)[C@H](CCC(=O)O)NC(=O)[C@H](CCCCN)NC(=O)[C@H](C)NC(=O)[C@H](C)NC(=O)[C@H](CCC(=O)O)NC(=O)[C@H](CCC(=O)O)NC(=O)[C@H](CCC(=O)O)NC(=O)[C@H](CC(C)C)NC(=O)[C@H](Cc1ccc(O)cc1)NC(=O)[C@H](CCC(=O)O)NC(=O)[C@@H](NC(=O)[C@@H](NC(=O)[C@H](CC(=O)O)NC(=O)[C@H](CC(N)=O)NC(=O)[C@@H](NC(=O)[C@H](Cc1ccc(O)cc1)NC(=O)[C@@H](NC(=O)CNC(=O)[C@H](CCC(=O)O)NC(=O)CNC(=O)[C@@H](N)Cc1cnc[nH]1)[C@@H](C)O)[C@@H](C)O)C(C)C)[C@@H](C)O)[C@@H](C)CC)C(=O)N[C@@H](CCCCN)C(=O)NCC(=O)N[C@@H](CCCCNC(=O)CC[C@H](NC(=O)COC(=O)C(C)(C)CCCOc1cc(C)ccc1C)C(=O)O)C(C)=O (H-HGEGTYTNDVTEYLEEEAAKEFIEWLIKG-X4) | 0.38 | Stable | – | Active
CC[C@H](C)[C@H](NC(=O)[C@H](CC(C)C)NC(=O)[C@H](Cc1c[nH]c2ccccc12)NC(=O)[C@H](CCC(=O)O)NC(=O)[C@@H](NC(=O)[C@H](Cc1ccccc1)NC(=O)[C@H](CCC(=O)O)NC(=O)[C@H](CCCCN)NC(=O)[C@H](C)NC(=O)[C@H](C)NC(=O)[C@H](CCC(=O)O)NC(=O)[C@H](CCC(=O)O)NC(=O)[C@H](CCC(=O)O)NC(=O)[C@H](CC(C)C)NC(=O)[C@H](Cc1ccc(O)cc1)NC(=O)[C@H](CCC(=O)O)NC(=O)[C@@H](NC(=O)[C@@H](NC(=O)[C@H](CC(=O)O)NC(=O)[C@H](CC(N)=O)NC(=O)[C@@H](NC(=O)[C@H](Cc1ccc(O)cc1)NC(=O)[C@@H](NC(=O)CNC(=O)[C@H](CCC(=O)O)NC(=O)CNC(=O)[C@@H](N)Cc1cnc[nH]1)[C@@H](C)O)[C@@H](C)O)C(C)C)[C@@H](C)O)[C@@H](C)CC)C(=O)N[C@@H](CCCCN)C(=O)NCC(=O)N[C@@H](CCCCNC(=O)CC[C@H](NC(=O)CCCCCCCCCCNC(=O)COC(=O)C(C)(C)CCCOc1cc(C)ccc1C)C(=O)O)C(C)=O (H-HGEGTYTNDVTEYLEEEAAKEFIEWLIKG-X5) | 0.38 | Stable | – | Active
CC[C@H](C)[C@H](NC(=O)[C@H](CC(C)C)NC(=O)[C@H](Cc1c[nH]c2ccccc12)NC(=O)[C@H](CCC(=O)O)NC(=O)[C@@H](NC(=O)[C@H](Cc1ccccc1)NC(=O)[C@H](CCC(=O)O)NC(=O)[C@H](CCCCNC(=O)CC[C@H](NC(=O)COC(=O)C(C)(C)CCCOc1cc(C)ccc1C)C(=O)O)NC(=O)[C@H](C)NC(=O)[C@H](C)NC(=O)[C@H](CCC(=O)O)NC(=O)[C@H](CCC(=O)O)NC(=O)[C@H](CCC(=O)O)NC(=O)[C@H](CC(C)C)NC(=O)[C@H](Cc1ccc(O)cc1)NC(=O)[C@@H](NC(=O)[C@@H](NC(=O)[C@@H](NC(=O)[C@H](CC(=O)O)NC(=O)[C@H](CC(N)=O)NC(=O)[C@@H](NC(=O)[C@H](Cc1ccc(O)cc1)NC(=O)[C@@H](NC(=O)CNC(=O)[C@H](CCC(=O)O)NC(=O)CNC(=O)[C@@H](N)Cc1cnc[nH]1)[C@@H](C)O)[C@@H](C)O)C(C)C)[C@@H](C)O)C(C)C)[C@@H](C)CC)C(=O)N[C@@H](CCCCN)C(=O)NCC(=O)N[C@@H](CCCCN)C(=O)O (H-HGEGTYTNDVTVYLEEEAAK([γGlu-Glycoloyl(O-gemfibrozoyl)])EFIEWLIKGK-OH) | 0.093 | Stable | – | Active

Continued, in another order:

EC50 [1] [nM] | Stabilty [2] | half-life at 1000 ng/ml [3] [h] | Structure (SMILES) | Activity (Mus musculus)
0.21 | Stable | – | CC[C@H](C)[C@H](NC(=O)[C@H](CC(C)C)NC(=O)[C@H](Cc1c[nH]c2ccccc12)NC(=O)[C@H](CCC(=O)O)NC(=O)[C@@H](NC(=O)[C@H](Cc1ccccc1)NC(=O)[C@H](CCC(=O)O)NC(=O)[C@H](CCCCN)NC(=O)[C@H](C)NC(=O)[C@H](C)NC(=O)[C@H](CCC(=O)O)NC(=O)[C@H](CCC(=O)O)NC(=O)[C@H](CCC(=O)O)NC(=O)[C@H](CC(C)C)NC(=O)[C@H](Cc1ccc(O)cc1)NC(=O)[C@H](CCC(=O)O)NC(=O)[C@@H](NC(=O)[C@@H](NC(=O)[C@H](CC(=O)O)NC(=O)[C@H](CC(N)=O)NC(=O)[C@@H](NC(=O)[C@H](Cc1ccc(O)cc1)NC(=O)[C@@H](NC(=O)CNC(=O)[C@H](CCC(=O)O)NC(=O)CNC(=O)[C@@H](N)Cc1cnc[nH]1)[C@@H](C)O)[C@@H](C)O)C(C)C)[C@@H](C)O)[C@@H](C)CC)C(=O)N[C@@H](CCCCNC(=O)CC[C@H](NC(=O)CCCCCNC(=O)COC(=O)C(C)(C)CCCOc1cc(C)ccc1C)C(=O)O)C(=O)NCC(=O)N[C@@H](CCCCN)C(=O)O (H-HGEGTYTNDVTEYLEEEAAKEFIEWLIK([γGlu-Ahx-Glycoloyl(O-gemfibrozoyl)])GK-OH) | Active
0.21 | Stable | – | CC[C@H](C)[C@H](NC(=O)[C@H](CC(C)C)NC(=O)[C@H](Cc1c[nH]c2ccccc12)NC(=O)[C@H](CCC(=O)O)NC(=O)[C@@H](NC(=O)[C@H](Cc1ccccc1)NC(=O)[C@H](CCC(=O)O)NC(=O)[C@H](CCCCN)NC(=O)[C@H](C)NC(=O)[C@H](C)NC(=O)[C@H](CCC(=O)O)NC(=O)[C@H](CCC(=O)O)NC(=O)[C@H](CCC(=O)O)NC(=O)[C@H](CC(C)C)NC(=O)[C@H](Cc1ccc(O)cc1)NC(=O)[C@H](CCC(=O)O)NC(=O)[C@@H](NC(=O)[C@@H](NC(=O)[C@H](CC(=O)O)NC(=O)[C@H](CC(N)=O)NC(=O)[C@@H](NC(=O)[C@H](Cc1ccc(O)cc1)NC(=O)[C@@H](NC(=O)CNC(=O)[C@H](CCC(=O)O)NC(=O)CNC(=O)[C@@H](N)Cc1cnc[nH]1)[C@@H](C)O)[C@@H](C)O)C(C)C)[C@@H](C)O)[C@@H](C)CC)C(=O)N[C@@H](CCCCNC(=O)CC[C@H](NC(=O)CCCCCCCCCCNC(=O)COC(=O)C(C)(C)CCCOc1cc(C)ccc1C)C(=O)O)C(=O)NCC(=O)N[C@@H](CCCCN)C(=O)O (H-HGEGTYTNDVTEYLEEEAAKEFIEWLIK([γGlu-Aun-Glycoloyl(O-gemfibrozoyl)])GK-OH) | Active
0.38 | Stable | – | CC[C@H](C)[C@H](NC(=O)[C@H](CC(C)C)NC(=O)[C@H](Cc1c[nH]c2ccccc12)NC(=O)[C@H](CCC(=O)O)NC(=O)[C@@H](NC(=O)[C@H](Cc1ccccc1)NC(=O)[C@H](CCC(=O)O)NC(=O)[C@H](CCCCN)NC(=O)[C@H](C)NC(=O)[C@H](C)NC(=O)[C@H](CCC(=O)O)NC(=O)[C@H](CCC(=O)O)NC(=O)[C@H](CCC(=O)O)NC(=O)[C@H](CC(C)C)NC(=O)[C@H](Cc1ccc(O)cc1)NC(=O)[C@H](CCC(=O)O)NC(=O)[C@@H](NC(=O)[C@@H](NC(=O)[C@H](CC(=O)O)NC(=O)[C@H](CC(N)=O)NC(=O)[C@@H](NC(=O)[C@H](Cc1ccc(O)cc1)NC(=O)[C@@H](NC(=O)CNC(=O)[C@H](CCC(=O)O)NC(=O)CNC(=O)[C@@H](N)Cc1cnc[nH]1)[C@@H](C)O)[C@@H](C)O)C(C)C)[C@@H](C)O)[C@@H](C)CC)C(=O)N[C@@H](CCCCN)C(=O)NCC(=O)N[C@@H](CCCCNC(=O)CC[C@H](NC(=O)CCCCCNC(=O)COC(=O)C(C)(C)CCCOc1cc(C)ccc1C)C(=O)O)C(=O)O (H-HGEGTYTNDVTEYLEEEAAKEFIEWLIKGK([γGlu-Ahx-Glycoloyl(O-gemfibrozoyl)])-OH) | Active
